# What was measured:
# [1] = Mutagenicity in Salmonella typhimurium TA100 at 100 ug/plate preincubated for 20 mins followed by addition of top agar and measured after 48 hrs by Ames test; type: toxicity; conditions: salmonella enterica subsp. enterica serovar typhimurium
# [2] = biological target: Neurotensin receptor type 1 (Homo sapiens) (UniProt P30989); assay: Displacement of [125I]Tyr3-neurotensin from human NSTR1 receptor at 10 uM after 60 mins by radiometric scintillation analysis relative to control
# Rattus norvegicus = species on record: Rattus norvegicus; assay: Displacement of [3H]GABA from rat brain GABA receptor at 10 uM after 30 mins by radiometric scintillation analysis relative to control
# [3] = Cmax in CD-1 mouse brain at 5 mg/kg, ip measured up to 480 mins by LC/ESI-MS/MS analysis; type: ADME, organism-based; design: dose 5 mg/kg, route intraperitoneal
# [4] = biological target: C-X-C chemokine receptor type 2 (Homo sapiens) (UniProt P25025); assay: Displacement of [125I]IL-8 from recombinant human CXCR2 at 10 uM after 60 mins by radiometric scintillation analysis relative to control
# C-X-C chemokine receptor type 2 (Homo sapiens), sequence (P25025 whole entry): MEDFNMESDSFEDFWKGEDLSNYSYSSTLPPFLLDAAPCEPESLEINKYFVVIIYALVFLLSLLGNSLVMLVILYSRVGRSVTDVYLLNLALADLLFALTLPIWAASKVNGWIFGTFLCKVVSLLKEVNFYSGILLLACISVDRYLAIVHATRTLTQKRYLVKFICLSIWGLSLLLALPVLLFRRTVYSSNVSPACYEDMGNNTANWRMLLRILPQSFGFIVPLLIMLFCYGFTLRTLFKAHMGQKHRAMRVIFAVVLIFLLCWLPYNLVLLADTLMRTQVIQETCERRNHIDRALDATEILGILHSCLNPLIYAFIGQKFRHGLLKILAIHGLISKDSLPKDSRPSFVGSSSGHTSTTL
# [5] = biological target: Nociceptin receptor (Homo sapiens) (UniProt P41146); assay: Displacement of [3H]nociceptin from recombinant human ORL1 receptor at 10 uM after 60 mins by radiometric scintillation analysis relative to control
# [6] = AUC (0 to t) in CD-1 mouse plasma at 5 mg/kg, ip measured up to 480 mins by LC/ESI-MS/MS analysis; type: ADME, organism-based; design: dose 5 mg/kg, time < 8 hr, route intraperitoneal
# [7] = biological target: Adenosine receptor A2a (Homo sapiens) (UniProt P29274); assay: Displacement of [3H]CGS 21680 from recombinant human A2A receptor at 10 uM after 120 mins by radiometric scintillation analysis relative to control
# [8] = MRT in CD-1 mouse plasma at 5 mg/kg, ip measured up to 480 mins by LC/ESI-MS/MS analysis; type: ADME, organism-based
# [9] = Mutagenicity in Salmonella typhimurium TA102 at 50 ug/plate preincubated for 20 mins followed by addition of top agar and measured after 48 hrs by Ames test; type: toxicity; conditions: salmonella enterica subsp. enterica serovar typhimurium
# [10] = biological target: C-C chemokine receptor type 1 (Homo sapiens) (UniProt P32246); assay: Displacement of [125I]MIP-1alpha from recombinant human CCR1 receptor at 10 uM after 120 mins by radiometric scintillation analysis relative to control
# C-C chemokine receptor type 1 (Homo sapiens), sequence (P32246 whole entry): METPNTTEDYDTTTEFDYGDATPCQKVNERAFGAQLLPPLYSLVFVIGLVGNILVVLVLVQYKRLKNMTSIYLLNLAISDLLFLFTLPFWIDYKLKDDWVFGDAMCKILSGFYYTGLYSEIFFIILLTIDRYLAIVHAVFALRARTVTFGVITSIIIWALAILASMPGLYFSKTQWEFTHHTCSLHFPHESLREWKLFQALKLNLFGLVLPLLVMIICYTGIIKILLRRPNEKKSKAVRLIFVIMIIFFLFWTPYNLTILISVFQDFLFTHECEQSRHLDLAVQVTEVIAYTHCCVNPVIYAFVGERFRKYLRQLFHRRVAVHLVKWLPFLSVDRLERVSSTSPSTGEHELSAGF
# [11] = biological target: Type-1 angiotensin II receptor (Homo sapiens) (UniProt P30556); assay: Displacement of [125I][Sar1,Ile8]-AT-II from recombinant human AT1 receptor at 10 uM after 120 mins by radiometric scintillation analysis relative to control
# [12] = Mutagenicity in Salmonella typhimurium TA102 at 250 ug/plate preincubated for 20 mins followed by addition of top agar and measured after 48 hrs by Ames test; type: toxicity; conditions: salmonella enterica subsp. enterica serovar typhimurium
# [13] = biological target: Muscarinic acetylcholine receptor M2 (Homo sapiens) (UniProt P08172); assay: Displacement of [3H]AF-DX 384 from recombinant human M2 receptor at 10 uM after 60 mins by radiometric scintillation analysis relative to control
# [14] = biological target: 5-hydroxytryptamine receptor 6 (Homo sapiens) (UniProt P50406); assay: Displacement of [3H]LSD from recombinant human 5-HT6 receptor at 10 uM after 120 mins by radiometric scintillation analysis relative to control
# [15] = biological target: Sodium-dependent noradrenaline transporter (Homo sapiens) (UniProt P23975); assay: Displacement of [3H]nisoxetine recombinant human norepinephrine transporter at 10 uM after 120 mins by radiometric scintillation analysis relative to control
# Sodium-dependent noradrenaline transporter (Homo sapiens), sequence (P23975 whole entry): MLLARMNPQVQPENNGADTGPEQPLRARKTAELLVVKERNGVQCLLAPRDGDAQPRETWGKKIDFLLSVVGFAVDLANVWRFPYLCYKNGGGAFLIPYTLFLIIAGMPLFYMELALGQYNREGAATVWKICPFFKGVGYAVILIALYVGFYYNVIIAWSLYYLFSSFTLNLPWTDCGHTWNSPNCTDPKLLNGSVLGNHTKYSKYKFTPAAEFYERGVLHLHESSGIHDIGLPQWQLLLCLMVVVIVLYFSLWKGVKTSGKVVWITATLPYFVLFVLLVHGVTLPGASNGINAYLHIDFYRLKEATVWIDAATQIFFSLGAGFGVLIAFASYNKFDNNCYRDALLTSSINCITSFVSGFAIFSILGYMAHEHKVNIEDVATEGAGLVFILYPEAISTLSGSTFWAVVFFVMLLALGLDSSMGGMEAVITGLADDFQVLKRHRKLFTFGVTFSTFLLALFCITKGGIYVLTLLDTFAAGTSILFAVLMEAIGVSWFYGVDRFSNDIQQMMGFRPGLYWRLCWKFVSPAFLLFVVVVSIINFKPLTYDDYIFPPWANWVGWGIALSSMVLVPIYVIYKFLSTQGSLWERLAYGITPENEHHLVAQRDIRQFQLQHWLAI
# [16] = Mutagenicity in Salmonella typhimurium TA100 at 50 ug/plate preincubated for 20 mins followed by addition of top agar and measured after 48 hrs by Ames test; type: toxicity; conditions: salmonella enterica subsp. enterica serovar typhimurium
# [17] = biological target: Mu-type opioid receptor (Homo sapiens) (UniProt P35372); assay: Displacement of [3H]DAMGO from recombinant human MOR receptor at 10 uM after 120 mins by radiometric scintillation analysis relative to control
# Mu-type opioid receptor (Homo sapiens), sequence (P35372 whole entry): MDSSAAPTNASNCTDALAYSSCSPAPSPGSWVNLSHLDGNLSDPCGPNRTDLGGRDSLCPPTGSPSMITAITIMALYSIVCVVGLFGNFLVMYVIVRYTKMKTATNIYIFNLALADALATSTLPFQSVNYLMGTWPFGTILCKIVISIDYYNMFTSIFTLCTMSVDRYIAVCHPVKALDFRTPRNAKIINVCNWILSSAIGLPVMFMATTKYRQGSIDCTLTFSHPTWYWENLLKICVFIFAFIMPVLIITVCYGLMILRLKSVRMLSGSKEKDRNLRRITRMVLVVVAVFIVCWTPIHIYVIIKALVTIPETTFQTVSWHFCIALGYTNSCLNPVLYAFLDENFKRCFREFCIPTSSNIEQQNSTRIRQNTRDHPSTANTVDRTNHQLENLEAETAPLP
# [18] = Drug metabolism in mouse liver microsomes assessed as metabolite formation by measuring retention time at 20 uM after 30 to 60 mins in presence of NADP by UPLC/MS analysis; type: ADME, Microsome
# [19] = biological target: Somatostatin receptor type 4 (Mus musculus) (UniProt P49660); assay: Displacement of [125I]Tyr11-somatostatin-14 from mouse SST4 receptor at 10 uM after 120 mins by radiometric scintillation analysis relative to control
# Somatostatin receptor type 4 (Mus musculus), sequence (P49660 as listed by the source): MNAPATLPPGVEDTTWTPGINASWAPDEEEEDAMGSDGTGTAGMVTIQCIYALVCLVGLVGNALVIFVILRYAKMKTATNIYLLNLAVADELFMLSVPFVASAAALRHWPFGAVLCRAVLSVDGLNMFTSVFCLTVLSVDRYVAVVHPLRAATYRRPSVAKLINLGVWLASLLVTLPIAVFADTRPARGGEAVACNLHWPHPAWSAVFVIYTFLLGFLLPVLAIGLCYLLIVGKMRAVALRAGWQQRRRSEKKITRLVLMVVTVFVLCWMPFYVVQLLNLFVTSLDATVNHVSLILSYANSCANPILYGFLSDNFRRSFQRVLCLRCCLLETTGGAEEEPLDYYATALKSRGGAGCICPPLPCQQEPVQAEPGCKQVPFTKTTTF
# [20] = biological target: Histamine H1 receptor (Homo sapiens) (UniProt P35367); assay: Displacement of [3H]pyrilamine from recombinant human H1 histamine receptor at 10 uM after 60 mins by radiometric scintillation analysis relative to control
# Histamine H1 receptor (Homo sapiens), sequence (P35367 whole entry): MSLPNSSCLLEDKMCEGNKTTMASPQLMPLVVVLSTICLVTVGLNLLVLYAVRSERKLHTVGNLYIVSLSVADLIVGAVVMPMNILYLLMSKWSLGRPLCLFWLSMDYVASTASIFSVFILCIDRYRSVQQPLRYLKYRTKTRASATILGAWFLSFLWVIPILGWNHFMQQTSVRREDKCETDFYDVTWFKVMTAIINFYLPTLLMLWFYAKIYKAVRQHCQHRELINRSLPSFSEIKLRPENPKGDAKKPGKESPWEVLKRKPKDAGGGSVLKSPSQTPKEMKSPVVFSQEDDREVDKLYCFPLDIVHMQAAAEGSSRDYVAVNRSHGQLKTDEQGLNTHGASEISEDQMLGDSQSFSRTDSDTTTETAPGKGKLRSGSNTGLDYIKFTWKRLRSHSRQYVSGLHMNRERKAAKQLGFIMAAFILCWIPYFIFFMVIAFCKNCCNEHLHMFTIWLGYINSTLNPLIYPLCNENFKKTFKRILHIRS
# [21] = biological target: Serotonin 2 (5-HT2) receptor (Rattus norvegicus) (UniProt P30994+P08909+P14842); assay: Displacement of [3H]ketanserin from 5-HT2 receptor in Wistar rat brain cortex membrane at 10 uM after 40 mins by scintillation counting analysis relative to control; type: cell membranes
# [22] = Terminal half life in CD-1 mouse brain at 5 mg/kg, ip measured up to 480 mins by LC/ESI-MS/MS analysis; type: ADME, organism-based; conditions: read-out: beta t1/2
# [23] = biological target: Melanocortin receptor 4 (Homo sapiens) (UniProt P32245); assay: Displacement of [125I]NDP-alpha -MSH from recombinant human MC4 receptor at 10 uM after 120 mins by radiometric scintillation counting analysis relative to control
# Melanocortin receptor 4 (Homo sapiens), sequence (P32245 whole entry): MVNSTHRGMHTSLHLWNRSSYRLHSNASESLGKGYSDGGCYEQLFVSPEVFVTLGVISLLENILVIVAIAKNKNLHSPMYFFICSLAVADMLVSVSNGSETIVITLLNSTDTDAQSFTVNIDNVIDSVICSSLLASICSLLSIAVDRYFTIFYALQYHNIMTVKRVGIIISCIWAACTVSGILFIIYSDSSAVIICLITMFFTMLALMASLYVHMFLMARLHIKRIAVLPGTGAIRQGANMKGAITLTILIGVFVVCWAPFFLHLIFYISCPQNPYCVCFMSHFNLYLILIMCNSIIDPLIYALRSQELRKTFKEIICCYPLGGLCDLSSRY
# [24] = MRT in CD-1 mouse brain at 5 mg/kg, ip measured up to 480 mins by LC/ESI-MS/MS analysis; type: ADME, organism-based
# [25] = Apparent volume of distribution in CD-1 mouse plasma at 5 mg/kg, ip measured up to 480 mins by LC/ESI-MS/MS analysis; type: ADME, organism-based
# [26] = Terminal half life in CD-1 mouse plasma at 5 mg/kg, ip measured up to 480 mins by LC/ESI-MS/MS analysis; type: ADME, organism-based; conditions: read-out: beta t1/2
# [27] = biological target: Endothelin-1 receptor (Homo sapiens) (UniProt P25101); assay: Displacement of [125I]endothelin-1 from recombinant human ETA receptor at 10 uM after 120 mins by radiometric scintillation analysis relative to control
# [28] = biological target: 5-hydroxytryptamine receptor 2B (Homo sapiens, UniProt P41595); assay: Displacement of [125I](+/-)DOI from recombinant human 5-HT2B receptor after 60 mins by radiometric scintillation analysis
# 5-hydroxytryptamine receptor 2B, sequence (P41595 whole entry): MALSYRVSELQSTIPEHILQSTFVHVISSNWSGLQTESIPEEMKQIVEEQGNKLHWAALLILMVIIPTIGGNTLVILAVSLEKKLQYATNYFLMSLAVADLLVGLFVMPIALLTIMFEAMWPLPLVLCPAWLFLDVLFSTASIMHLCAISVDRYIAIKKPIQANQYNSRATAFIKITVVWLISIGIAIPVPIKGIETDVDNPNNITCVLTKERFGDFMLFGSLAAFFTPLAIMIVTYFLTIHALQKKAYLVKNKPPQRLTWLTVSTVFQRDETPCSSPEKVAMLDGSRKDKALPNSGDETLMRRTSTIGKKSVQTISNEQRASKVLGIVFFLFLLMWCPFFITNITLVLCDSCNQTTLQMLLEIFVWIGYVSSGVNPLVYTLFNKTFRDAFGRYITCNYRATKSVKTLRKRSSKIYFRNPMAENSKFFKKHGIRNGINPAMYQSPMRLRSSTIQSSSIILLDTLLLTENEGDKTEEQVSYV
# Mus musculus = assay: Anxiolytic activity in albino Swiss CD-1 mouse assessed as increase in number of punished crossings at 5 mg/kg, ip administered 30 mins prior to test by four-plate test relative to control; type: functional
# [29] = biological target: Prostaglandin E2 receptor EP4 subtype (Homo sapiens) (UniProt P35408); assay: Displacement of [3H]PGE2 from recombinant human EP4 receptor at 10 uM after 120 mins by radiometric scintillation analysis relative to control
# Prostaglandin E2 receptor EP4 subtype (Homo sapiens), sequence (P35408 whole entry): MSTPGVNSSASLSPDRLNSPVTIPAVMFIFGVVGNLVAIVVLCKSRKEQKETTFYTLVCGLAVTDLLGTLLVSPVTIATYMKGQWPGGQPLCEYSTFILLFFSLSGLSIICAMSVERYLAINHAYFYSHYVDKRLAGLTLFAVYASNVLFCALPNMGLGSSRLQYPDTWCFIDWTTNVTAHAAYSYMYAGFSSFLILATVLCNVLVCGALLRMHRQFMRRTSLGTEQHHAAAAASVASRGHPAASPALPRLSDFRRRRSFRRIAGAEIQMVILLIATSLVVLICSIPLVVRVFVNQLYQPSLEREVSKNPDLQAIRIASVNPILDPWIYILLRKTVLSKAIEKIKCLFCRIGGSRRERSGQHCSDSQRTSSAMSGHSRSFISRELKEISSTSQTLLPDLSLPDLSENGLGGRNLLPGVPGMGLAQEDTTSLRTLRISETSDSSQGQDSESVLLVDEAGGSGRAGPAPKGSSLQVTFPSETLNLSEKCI
# [30] = biological target: Delta-type opioid receptor (Homo sapiens) (UniProt P41143); assay: Displacement of [3H]DADLE from recombinant human DOR receptor at 10 uM after 60 mins by radiometric scintillation analysis relative to control
# Delta-type opioid receptor (Homo sapiens), sequence (P41143 whole entry): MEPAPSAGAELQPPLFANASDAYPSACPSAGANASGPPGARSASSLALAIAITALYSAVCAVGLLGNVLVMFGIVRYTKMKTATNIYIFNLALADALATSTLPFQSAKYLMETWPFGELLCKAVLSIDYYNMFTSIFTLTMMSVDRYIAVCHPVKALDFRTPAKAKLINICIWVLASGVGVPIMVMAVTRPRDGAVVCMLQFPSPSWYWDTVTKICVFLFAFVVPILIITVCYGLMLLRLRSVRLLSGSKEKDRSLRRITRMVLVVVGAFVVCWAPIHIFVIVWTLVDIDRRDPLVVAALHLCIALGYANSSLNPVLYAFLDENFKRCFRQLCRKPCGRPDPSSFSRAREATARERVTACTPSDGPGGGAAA
# [31] = biological target: Muscarinic acetylcholine receptor M3 (Homo sapiens) (UniProt P20309); assay: Displacement of [3H]4-DAMP from recombinant human M3 receptor at 10 uM after 60 mins by radiometric scintillation analysis relative to control
# Muscarinic acetylcholine receptor M3 (Homo sapiens), sequence (P20309 whole entry, looked up): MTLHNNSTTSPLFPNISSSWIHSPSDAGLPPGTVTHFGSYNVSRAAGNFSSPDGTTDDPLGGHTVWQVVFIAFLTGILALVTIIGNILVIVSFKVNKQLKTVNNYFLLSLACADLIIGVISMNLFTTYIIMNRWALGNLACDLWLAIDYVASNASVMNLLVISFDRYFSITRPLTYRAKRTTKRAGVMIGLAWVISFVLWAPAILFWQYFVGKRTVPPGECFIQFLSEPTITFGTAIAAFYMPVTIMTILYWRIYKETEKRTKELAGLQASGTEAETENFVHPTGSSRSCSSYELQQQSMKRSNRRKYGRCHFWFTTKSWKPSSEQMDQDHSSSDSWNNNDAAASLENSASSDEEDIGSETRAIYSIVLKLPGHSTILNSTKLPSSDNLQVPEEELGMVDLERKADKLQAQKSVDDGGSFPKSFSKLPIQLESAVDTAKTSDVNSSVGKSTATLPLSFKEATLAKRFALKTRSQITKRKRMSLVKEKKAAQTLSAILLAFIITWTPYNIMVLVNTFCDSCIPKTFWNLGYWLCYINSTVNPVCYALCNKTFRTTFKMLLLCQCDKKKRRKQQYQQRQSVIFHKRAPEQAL
compound,measurement,setting,value
Cl.Cl.O=c1c2cc(Cl)ccc2oc2ccc(CN3CCN(CCOCCO)CC3)cc12,Activity_index,[1],0.45
same,inhibition,[2],-3.5%
same,inhibition,Rattus norvegicus,11.7%
same,Cmax,[3],18600 ng/mL
same,inhibition,[4],19.8%
same,inhibition,[5],6.5%
same,AUC(0-t) at 8 h,[6],5490 ng·h/mL
same,inhibition,[7],12.2%
same,MRT,[8],2.59 h
same,Activity_index,[9],0.78
same,inhibition,[10],-3.1%
same,inhibition,[11],8.4%
same,Activity_index,[12],1.28
same,inhibition,[13],35.9%
same,inhibition,[14],2.5%
same,inhibition,[15],43.1%
same,Activity_index,[16],0.64
same,inhibition,[17],11.8%
same,Retention_time,[18],4.49 min
same,inhibition,[19],-2.9%
same,inhibition,[20],43.1%
same,inhibition,[21],47%
same,half-life,[22],2.88 h
same,inhibition,[23],-4%
same,MRT,[24],2.58 h
same,Vd/F,[25],3.06 L/kg
same,half-life,[26],2.89 h
same,inhibition,[27],4.9%
same,Ki,[28],2.9 µM
same,Activity,Mus musculus,66.6%
same,inhibition,[29],10.9%
same,inhibition,[30],27.1%
same,inhibition,[31],50.1%

# — ChEMBL document CHEMBL4364344, “Design, synthesis and evaluation of activity and pharmacokinetic profile of new derivatives of xanthone and piperazine in the central nervous system” (Bioorg Med Chem Lett, 2019)
